Data as given in PubChem BioAssay (NCI).
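Dose response: 5 concentrations. Exposure: 48 h. Format: 96-well plates. Endpoint: linear interpolation; highest concentration if not reached. GI50 marks 50% less growth. TGI: total growth inhibition.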

Key:
Experiment in all cases: inhibition of tumour cell growth, NCI panel, 48 h
[1] = system: A498 renal
[2] = system: SF-539 CNS
[3] = system: OVCAR-5 ovarian
[4] = system: ACHN renal
[5] = system: NCI-H460 lung
[6] = system: SR leukemia
[7] = system: HCT-116 colon
[8] = system: SN12C renal
[9] = system: CAKI-1 renal
[10] = system: OVCAR-4 ovarian

SMILES	GI50 [1]	TGI [1]	GI50 [2]	TGI [2]	GI50 [3]	TGI [3]	GI50 [4]	TGI [4]	GI50 [5]	TGI [5]	GI50 [6]	TGI [6]	GI50 [7]	TGI [7]	GI50 [8]	TGI [8]	TGI [9]	TGI [10]	GI50 [9]	GI50 [10]
CCOC(=O)C1CCN(S(=O)(=O)/N=C2/NC(=O)NC2=C(Cl)Cl)CC1	2.65 µM	12.1 µM	0.525 µM	4.44 µM	3.6 µM	14.7 µM	1.83 µM	3.32 µM	3.19 µM	11.4 µM	0.731 µM	4.96 µM	0.736 µM	2.48 µM	1.55 µM	3.1 µM	–	–	–	–
CN(Cc1ccccc1)C(=O)c1ccccc1C(=O)O	–	–	–	> 100 µM	–	> 100 µM	–	> 100 µM	–	> 100 µM	–	> 100 µM	–	> 100 µM	–	> 100 µM	> 100 µM	> 100 µM	–	–
O=C1c2ccccc2C(=O)C1(O)c1c[nH]c2ccccc12	–	–	–	> 100 µM	–	> 100 µM	–	–	–	> 100 µM	–	> 100 µM	–	> 100 µM	–	–	> 100 µM	> 100 µM	–	–
Cc1[nH]c(=O)nc2[nH][nH]c(=O)c12	–	–	–	> 100 µM	–	> 100 µM	–	> 100 µM	–	> 100 µM	–	> 100 µM	–	> 100 µM	–	> 100 µM	> 100 µM	> 100 µM	–	–
C=CCCCCC/C=C\[C@@H](O)C#CC#C/C=C/CO	> 100 µM	> 100 µM	> 100 µM	> 100 µM	> 100 µM	> 100 µM	> 100 µM	> 100 µM	> 100 µM	> 100 µM	–	–	45.7 µM	> 100 µM	57.5 µM	> 100 µM	> 100 µM	> 100 µM	> 100 µM	> 100 µM
CC(=O)O[C@H]1CCC2[C@@H]3CC[C@]4(C)CC(=O)C=C[C@]4(C)C3CC[C@@]21C (some centres not stated)	–	> 100 µM	–	31.8 µM	–	> 100 µM	–	> 100 µM	–	32 µM	–	–	–	32.1 µM	–	55.9 µM	> 100 µM	31.8 µM	–	–
COc1ccc2c3c([nH]c2c1[N+](=O)[O-])C(C)N(C)CC3 (configuration not stated)	–	> 100 µM	–	> 100 µM	–	> 100 µM	–	> 100 µM	–	> 100 µM	–	–	–	> 100 µM	–	> 100 µM	> 100 µM	> 100 µM	–	–
S=c1ssc(N2CCOCC2)c1Cl	–	–	31.4 µM	76.3 µM	> 100 µM	> 100 µM	78.5 µM	> 100 µM	21.5 µM	67 µM	13.3 µM	65.9 µM	–	–	72.7 µM	> 100 µM	> 100 µM	> 100 µM	> 100 µM	> 100 µM
CCNCCNc1cc(-c2ccc(C(F)(F)F)cc2)c(C#N)c2nc3ccccc3n12	1.86 µM	3.33 µM	–	–	1.94 µM	3.52 µM	1.24 µM	2.64 µM	1.22 µM	2.73 µM	0.343 µM	1.19 µM	0.388 µM	1.32 µM	1.34 µM	2.83 µM	2.31 µM	1.78 µM	1.11 µM	0.469 µM
COc1cc2c(cc1OCCCCC(=O)Nc1cc3c4ccccc4ccc3c3ccccc13)N=C[C@@H]1CCCN1C2=O	2.9 µM	9.38 µM	2.22 µM	9.06 µM	11.5 µM	52.8 µM	38.8 µM	> 100 µM	5.33 µM	51.5 µM	–	–	25.1 µM	88.8 µM	22.6 µM	89.3 µM	13.1 µM	22.8 µM	3.44 µM	5.16 µM
[N-]=[N+]=C1C(=O)NN=C1c1ccccc1	–	–	–	> 100 µM	–	> 100 µM	–	> 100 µM	–	> 100 µM	–	> 100 µM	–	> 100 µM	–	> 100 µM	> 100 µM	> 100 µM	–	–
Cc1cc(NC(=S)SCc2ccc(F)cc2)c([N+](=O)[O-])cc1C	–	–	–	53.2 µM	–	54.7 µM	–	> 100 µM	–	> 100 µM	–	43.9 µM	–	> 100 µM	–	48.4 µM	> 100 µM	> 100 µM	–	–
COc1ccc(C(=O)c2cc(C)c(OC)c(C)c2)cc1OC(=O)CCl	1.45 µM	9.51 µM	< 0.01 µM	< 0.01 µM	1.71 µM	> 100 µM	< 0.01 µM	77.5 µM	< 0.01 µM	18.5 µM	< 0.01 µM	> 100 µM	< 0.0111 µM	> 100 µM	< 0.01 µM	> 100 µM	–	> 100 µM	–	0.866 µM
Nc1ccccc1/C(O)=C1/CCOC1=O	–	> 100 µM	–	–	–	> 100 µM	–	> 100 µM	–	> 100 µM	–	> 100 µM	–	> 100 µM	–	> 100 µM	> 100 µM	> 100 µM	–	–
CCOC(=O)/C(C)=C(/O)C(=O)OCC	–	> 100 µM	–	> 100 µM	–	> 100 µM	–	> 100 µM	–	> 100 µM	–	–	–	> 100 µM	–	> 100 µM	> 100 µM	> 100 µM	–	–
O=C(Nc1ccccc1-c1nc2ccccc2[nH]c1=O)c1ccccc1	–	51.3 µM	–	49.6 µM	–	> 100 µM	–	45 µM	–	47.1 µM	–	–	–	40.7 µM	–	69.1 µM	86.8 µM	50.6 µM	–	–
